Source: DBAASP
In brackets after ≈: the same amount, converted by molar mass. Several values for one entry are separate records, joined by “and”; a condition that tells them apart may be missing. Equal values may be shown once.

Legend:
Experiment in all cases: ≥ marks a high value that may be exact or a test limit, other limits are often not marked, values filed in µg/mL are converted to µM
[1] = system: Mycobacterium tuberculosis WXY
[2] = system: Mycobacterium tuberculosis FYX
[3] = system: Mycobacterium tuberculosis CAS3
[4] = system: Escherichia coli ATCC 25922
[5] = system: Mycobacterium tuberculosis
[6] = system: Mycobacterium tuberculosis H37Rv
[7] = system: Staphylococcus aureus IFO 12732
[8] = system: Pseudomonas aeruginosa IFO 12582
[9] = system: Bacillus subtilis IFO 3134
[10] = system: Escherichia coli IFO 12734
[11] = system: Salmonella enterica subsp. enterica serovar Typhimurium ATCC 14028
[12] = system: Staphylococcus aureus ATCC 25923
Bacillus megaterium = system: Bacillus megaterium
[13] = system: Pseudomonas aeruginosa ATCC 27853
Escherichia coli ML-35 = system: Escherichia coli ML-35
[14] = system: Staphylococcus aureus CCARM 3543
[15] = system: Staphylococcus aureus CCARM 3001
[16] = system: Pseudomonas aeruginosa CCARM 2095
[17] = system: Staphylococcus aureus KCTC 1621
[18] = system: Escherichia coli KCTC 1682
[19] = system: Pseudomonas aeruginosa CCARM 2109
[20] = system: Salmonella typhimurium KCTC 1926
[21] = system: Bacillus subtilis KCTC 3068
[22] = system: Pseudomonas aeruginosa KCTC 1637
[23] = system: Staphylococcus epidermidis KCTC 1917
[24] = system: Enterococcus faecium ATCC 51559
[25] = system: Staphylococcus aureus CCARM 3090
[26] = system: Staphylococcus aureus CCARM 3095
[27] = system: Bacillus subtilis var. niger ATCC 9372
[28] = system: Burkholderia thailandensis
Escherichia coli K91BK = system: Escherichia coli K91BK
[29] = system: Bacillus anthracis Sterne 34F2
[30] = system: Staphylococcus epidermidis
[31] = system: Enterococcus faecalis ATCC 29212
Listeria monocytogenes = system: Listeria monocytogenes
[32] = system: Salmonella enterica subsp. enterica serovar Typhimurium ATCC 14028s
[33] = system: Pseudomonas aeruginosa K799
Escherichia coli UB1005 = system: Escherichia coli UB1005

Q: Which results are given for CC(C)C[C@H](NC(=O)[C@H](CCCCN)NC(=O)[C@H](CCCCN)NC(=O)[C@H](CO)NC(=O)[C@H](Cc1ccccc1)NC(=O)[C@H](CCCCN)NC(=O)CNC(=O)[C@@H]1CCCN1C(=O)CNC(=O)[C@H](CCCCN)NC(=O)[C@H](CC(C)C)NC(=O)CNC(=O)[C@H](CCCCN)NC(=O)[C@H](CC(C)C)NC(=O)CNC(=O)[C@H](Cc1c[nH]c2ccccc12)NC(=O)[C@@H](N)Cc1ccccc1)C(=O)O [FWGLKGLKGPGKFSKKL]?
A: MIC [1]: ≥ 39.7 µM; MIC [2]: 19.8 µM (≈ 37.5 µg/mL); MIC [3]: ≥ 39.7 µM; MIC [4]: > 25 µM; MIC [5]: 14.8 µM (≈ 28 µg/mL); MIC [6]: 11.6 µM and 19.8 µM

Q: What does the source list for CC[C@H](C)[C@H](NC(=O)[C@H](C)NC(=O)[C@@H]1CCCN1C(=O)[C@@H](NC(=O)[C@@H](NC(=O)[C@H](Cc1cnc[nH]1)NC(=O)[C@H](C)NC(=O)[C@H](C)NC(=O)[C@@H](NC(=O)[C@H](CCCCN)NC(=O)[C@H](C)NC(=O)[C@H](CC(C)C)NC(=O)[C@@H](NC(=O)CNC(=O)[C@H](Cc1ccccc1)NC(=O)[C@H](CC(C)C)NC(=O)CN)C(C)C)C(C)C)C(C)C)C(C)C)C(=O)N[C@@H](C)C(=O)N[C@@H](CCC(=O)O)C(=O)N[C@@H](Cc1cnc[nH]1)C(N)=O [GLFGVLAKVAAHVVPAIAEH]?
A: MIC [7]: ≥ 64 µM; MIC [8]: ≥ 64 µM; MIC [9]: ≥ 64 µM; MIC [10]: ≥ 64 µM

Q: What does the source list for CC[C@H](C)[C@H](NC(=O)[C@H](CCCCN)NC(=O)[C@H](CCCCN)NC(=O)[C@H](CC(C)C)NC(=O)[C@H](C)NC(=O)[C@H](CCC(=O)O)NC(=O)[C@H](CCCCN)NC(=O)[C@@H](NC(=O)[C@H](CCCCN)NC(=O)[C@H](CC(N)=O)NC(=O)[C@H](CCCN=C(N)N)NC(=O)[C@H](Cc1ccccc1)NC(=O)[C@H](CCCCN)NC(=O)[C@H](CCCN=C(N)N)NC(=O)[C@H](CC(C)C)NC(=O)[C@H](C)NC(=O)[C@H](CCCCN)NC(=O)[C@H](CCCN=C(N)N)NC(=O)[C@H](CC(C)C)NC(=O)CN)[C@@H](C)CC)C(=O)O [GLRKALRKFRNKIKEALKKI]?
A: MIC [11]: 0.5 µM (≈ 1.21 µg/mL); MIC [12]: 2 µM (≈ 4.82 µg/mL); MIC (Bacillus megaterium): 2 µM (≈ 4.82 µg/mL); MIC [13]: 2 µM (≈ 4.82 µg/mL); MIC [4]: 2 µM (≈ 4.82 µg/mL); MIC (Escherichia coli ML-35): 0.5 µM (≈ 1.21 µg/mL)

Q: How did the MIC [14] turn out when CC(C)C[C@H](NC(=O)[C@H](CC(C)C)NC(=O)[C@H](Cc1c[nH]c2ccccc12)NC(=O)[C@H](CCCCN)NC(=O)[C@H](CC(C)C)NC(=O)[C@H](Cc1c[nH]c2ccccc12)NC(=O)[C@H](CC(C)C)NC(=O)[C@H](CCCCN)NC(=O)[C@H](Cc1c[nH]c2ccccc12)NC(=O)[C@H](CC(C)C)NC(=O)[C@@H](N)CCCCN)C(N)=O [KLWKLWLKWLL] was run?
A: 4 µM (≈ 6.1 µg/mL)

Q: And the MIC [15]?
A: 4 µM (≈ 6.1 µg/mL)

Q: And the MIC [16]?
A: 8 µM (≈ 12.2 µg/mL)

Q: And the MIC [17]?
A: 4 µM (≈ 6.1 µg/mL)

Q: And the MIC [18]?
A: 8 µM (≈ 12.2 µg/mL)

Q: And the MIC [19]?
A: 16 µM (≈ 24.4 µg/mL)

Q: What about the MIC [20] of the same compound?
A: 4 µM (≈ 6.1 µg/mL)

Q: What about the MIC [21] of the same compound?
A: 8 µM (≈ 12.2 µg/mL)

Q: What about the MIC [22] of the same compound?
A: 8 µM (≈ 12.2 µg/mL)

Q: And the MIC [23]?
A: 8 µM (≈ 12.2 µg/mL)

Q: For CC[C@H](C)[C@H](NC(=O)[C@H](CC(C)C)NC(=O)[C@H](CCCCN)NC(=O)[C@@H](NC(=O)[C@@H](NC(=O)[C@H](CCCN=C(N)N)NC(=O)[C@@H](N)CCCCN)[C@@H](C)CC)C(C)C)C(=O)N[C@@H](CCCCN)C(=O)N[C@@H](CCCCN)C(=O)N[C@@H](Cc1c[nH]c2ccccc12)C(=O)N[C@@H](CC(C)C)C(=O)N[C@@H](CCCN=C(N)N)C(N)=O [KRIVKLIKKWLR], which MIC [24] is on record?
A: ≥ 64 µM

Q: What about the MIC [25] of the same compound?
A: ≥ 64 µM

Q: And the MIC [26]?
A: ≥ 64 µM

Q: What about the MIC [16] of the same compound?
A: 4 µM (≈ 6.32 µg/mL)

Q: And the MIC [19]?
A: ≥ 64 µM

Q: And the MIC [21]?
A: 8 µM and 4 µM

Q: What about the MIC [22] of the same compound?
A: 4 µM and 8 µM

Q: Which MIC [27] does the source give for CC[C@H](C)[C@H](NC(=O)[C@H](CCCCN)NC(=O)[C@H](CCCN=C(N)N)NC(=O)CNC(=O)[C@H](CC(C)C)NC(=O)[C@H](CCCN=C(N)N)NC(=O)[C@H](CCCN=C(N)N)NC(=O)[C@H](CC(C)C)NC(=O)CNC(=O)[C@H](CCCN=C(N)N)NC(C)=O)C(=O)N[C@@H](C)C(=O)N[C@@H](Cc1cnc[nH]1)C(=O)NCC(=O)N[C@H](C(=O)N[C@@H](CCCCN)C(=O)N[C@@H](CCCCN)C(=O)N[C@@H](Cc1ccc(O)cc1)C(=O)NCC(=O)N1CCC[C@H]1C(=O)N[C@H](C(=O)N[C@H](C(=O)N[C@@H](CC(C)C)C(=O)N[C@@H](CCCN=C(N)N)C(=O)N[C@H](C(=O)N[C@H](C(=O)N[C@@H](CCCN=C(N)N)C(=O)N[C@H](C(=O)N[C@@H](C)C(=O)N[C@H](C(N)=O)[C@@H](C)O)[C@@H](C)O)[C@@H](C)CC)[C@@H](C)CC)C(C)C)[C@@H](C)O)C(C)C [RGLRRLGRKIAHGVKKYGPTVLRIIRTAT] here?
A: 3.13 µM (≈ 10.4 µg/mL)

Q: What about the MIC [28] of the same compound?
A: ≥ 100 µM

Q: And the MIC (Escherichia coli K91BK)?
A: ≥ 36.1 µM

Q: What about the MIC [29] of the same compound?
A: 2.51 µM (≈ 8.36 µg/mL)

Q: CC[C@H](C)[C@@H]1NC(=O)[C@H](C(C)C)NC(=O)[C@H](C(C)C)NC(=O)[C@H]([C@@H](C)CC)NC(=O)[C@@H]2CCCN2C(=O)[C@@H](NC(=O)[C@H](CCCN=C(N)N)NC(=O)[C@@H](N)CCCN=C(N)N)CSSC[C@@H](C(=O)N[C@@H](CCCN=C(N)N)C(=O)O)NC(=O)[C@H](C(C)C)NC(=O)[C@H](CCCN=C(N)N)NC1=O [RRCPIVVIRVCR] was tested. Which MIC [30] did it give?
A: 21.8 µM (≈ 32 µg/mL)

Q: What about the MIC [31] of the same compound?
A: > 21.8 µM

Q: And the MIC [12]?
A: 21.8 µM (≈ 32 µg/mL)

Q: What about the MIC (Listeria monocytogenes) of the same compound?
A: 10.9 µM (≈ 16 µg/mL)

Q: What about the MIC [32] of the same compound?
A: 10.9 µM (≈ 16 µg/mL)

Q: What about the MIC [33] of the same compound?
A: 21.8 µM (≈ 32 µg/mL)

Q: What about the MIC (Escherichia coli UB1005) of the same compound?
A: 2.72 µM (≈ 3.99 µg/mL)
